This note sets out measurements from US20200330399A1, “COMBINATION THERAPY COMPRISING A POLYUNSATURATED KETONE AND A CORTICOSTEROID” (priority 2016, published 2020).

The experiment deals with skin keratinocyte cell line HaCaT. The experiment is described as follows: Resazurin assay of HaCaT keratinocyte cell proliferation and viability. Type of experiment: cell-based, human. The note with it: Example 2, 24 hours, Calcipotriol alone 10 μM, FIG. 2. The method, then: The spontaneously immortalized, nontumorigenic skin keratinocyte cell line HaCaT was maintained in DMEM supplemented with 5% (v/v) FBS, 0.3 mg/ml glutamine and 0.1 mg/ml gentamicin at 37° C. with 5% CO2 in a humidified atmosphere. Subculture using trypsin-EDTA was performed every 3-4 days with split ratio of 1:3-1:4 to ensure actively proliferating cells.
Cells were seeded in 96 well plates in fully supplemented medium at a density of 2500 cells per well. Following 72 hours of cultivation, the cells were starved of serum in 0.25% FBS/DMEM overnight to halt proliferation, synchronize the cells and to increase cell sensitivity to treatment. On day 4, the cells were treated with cPLA2a inhibitor Compound A and corticosteroid Betamethasone 17, 21-dipropionate (Sigma Aldrich # B1152) and left to incubate for […] in incubator at 37° C. with 5% CO2 in a humidified atmosphere before fluorescence was read at 544 nm excitation and 590 nm emission wavelength. […]
Cells were seeded in 96 well plates in fully supplemented medium at a density of 2500 cells per well. […] On day 5, resazurin was added according to the manufacturer's instruction (RnD Systems, UK) and left to incubate for 2 hour incubator at 37° C. with 5% CO2 in a humidified atmosphere before fluorescence was read at 544 nm excitation and 590 nm emission wavelength. […]
On the technique in general: Resazurin is reduced to fluorescent resorufin, in cell work by metabolically active cells.

In the case of `C=C1/C(=C\C=C2/CCC[C@]3(C)[C@@H]([C@H](C)/C=C/[C@@H](O)C4CC4)CC[C@@H]23)C[C@@H](O)C[C@@H]1O` [Calcipotriol, Calcipotriol hydrate], the “reduction of cell proliferation” value was determined as 20%.
